According to US20220016101A1 (ACADIA Pharmaceuticals Inc., priority 2018, published 2022):

System: patients with MDD and an inadequate response to an SSRI or SNRI
Experiment: Massachusetts General Hospital Sexual Functioning Index (MGH-SFI), Study ACP-103-042
Format: in vivo, human
Set-up: key to MGH-SFI Ability to Get Sexually Aroused or Excited, treatment effect size / MGH-SFI Ability to Achieve Orgasm, treatment effect size / MGH-SFI Overall Sexual Satisfaction, treatment effect size: Cohen's d = LS mean difference (PIM vs PBO) / SD
Excerpt: “Massachusetts General Hospital Sexual Functioning Index (MGH-SFI)” is described, for instance, in Labbate and Lare, 2001, Psychother Psychosom. 70(4):221-225. This is a patient facing questionnaire that quantifies sexual dysfunction into 5 functional domains (“interest in sex,” “sexual arousal,” “ability to achieve orgasm,” “ability to maintain erection” (males only), and “sexual satisfaction”). Patients rate each item using a 6-point scale ranging from 1 (good function) to 6 (poor function). High scores indicate poor sexual functioning. […] The determination of the subject's status and eligibility for randomization in Stage 2 was made in a double-blind manner. […] Sexual functioning was assessed using the Massachusetts General Hospital Sexual Functioning Index or MGH-SFI (Labbate and Lare, 2001, Psychother Psychosom. 70(4):221-225). This is a patient facing questionnaire that quantifies sexual dysfunction into 5 functional domains (“interest in sex,” “sexual arousal,” “ability to achieve orgasm,” “ability to maintain erection” [malesonly], and “sexual satisfaction”). Patients rate each item using a 6-point scale ranging from 1 (good function) to 6 (poor function). The time frame for this scale is the past month. This scale was administered at baseline and Week 5 in both stages of the study. High scores indicate poor sexual functioning. In ACP-103-042 the mean scores for MGH-SFI at Baseline was calculated over all 5 domains for males and the 4 domains for females. For MGH-SFI (follow-up version) at Study Weeks 5 and 10, the mean was calculated in the same way as MGH-SFI at Baseline. […] Tables 10-27 summarize the detailed data of MGH-SFI individual items of the overall study group (Tables 10-15), the subgroup of age of <=50 (Tables 16-21) and the subgroup of age of >50 (Table 21-26). In Tables 9-26, ANCOVA=analysis of covariance; OC=observed cases; LSM=least squares mean; CI=confidence interval; SD=standard deviation; SE=standard error. Stage 1: Baseline=Study Week 0, Week 5=Study Week 5; Stage 2: Baseline=Study Week 5, Week 5=Study Weeks 10. LSM from the stage-specific ANCOVA analysis with the change from baseline as the outcome, treatment group as a factor, and the corresponding Baseline value as a covariate. 2-sided p-value for treatment difference from the stage-specific ANCOVA analysis. An treatment effect size (Cohen's d) is calculated using the formula: Effect Size=Least Square mean difference between PIM and PBO/SD. The corresponding 95% confidence interval for an effect size is calculated based on the theoretical probability distribution of the effect size. […] Tables 10-15 and 28-38 summarize the detailed data of MGH-SFI individual items of the overall study group (Tables 10-15), the female subgroup (Tables 33-37) and the male subgroup (Table 38-43). An treatment effect size (Cohen's d) is calculated using the formula: Effect Size=Least Square mean difference between PIM and PBO/SD. The corresponding 95% confidence interval for an effect size is calculated based on the theoretical probability distribution of the effect size. In Tables 10-15 and 28-38, ANCOVA=analysis of covariance; OC=observed cases; LSM=least squares mean; CI=confidence interval; SD=standard deviation; SE=standard error. Stage 1: Baseline=Study Week 0, Week 5=Study Week 5; Stage 2: Baseline=Study Week 5, Week 5=Study Weeks 10. LSM from the stage-specific ANCOVA analysis with the change from baseline as the outcome, treatment group as a factor, and the corresponding Baseline value as a covariate. 2-sided p-value for treatment difference from the stage-specific ANCOVA analysis. An treatment effect size (Cohen's d) is calculated using the formula: Effect Size=Least Square mean difference between PIM and PBO/SD. The corresponding 95% confidence interval for an effect size is calculated based on the theoretical probability distribution of the effect size.

[1] = Stage 1, Overall Study Group, 34 mg QD + SSRI/SNRI
[2] = Stage 1, Subgroup of <=50 Years
[3] = Stage 1, Subgroup of <=50 Years Old
[4] = Stage 1, Subgroup of <=50 Years Old, 34 mg QD + SSRI/SNRI

## CC(C)COc1ccc(CNC(=O)N(Cc2ccc(F)cc2)C2CCN(C)CC2)cc1 [pimavanserin, N-(4-Fluorophenylmethyl)-N-(1-methylpiperidin-4-yl)-N′-(4-(2-methylpropyloxy)phenylmethyl)carbamide]
Stage 1
  MGH-SFI Items mean change stratified by age >50 or ≤50 years vs placebo: differences were only significant for the age >50 years subgroup
  MGH-SFI treatment effect size for pimavanserin compared to placebo: 0.614
Stage 1, Overall Study Group
  MGH-SFI 01: Interest in Sex, Change from Baseline to Week 5 Mean (SE): −0.9 (0.23)
  MGH-SFI 01: Interest in Sex, Change from Baseline to Week 5 Median: −1.0
  MGH-SFI 01: Interest in Sex, Effect Size (Cohen's d): 0.483
  MGH-SFI 01: Interest in Sex, Week 5 Median: 4.0
  MGH-SFI 02: Ability to Get Sexually Aroused or Excited, Change from Baseline to Week 5 Mean (SE): −0.8 (0.17)
  MGH-SFI 02: Ability to Get Sexually Aroused or Excited, Change from Baseline to Week 5 Median: −1.0
  MGH-SFI 02: Ability to Get Sexually Aroused or Excited, Effect Size (Cohen's d): 0.560
  MGH-SFI 02: Ability to Get Sexually Aroused or Excited, Week 5 Median: 4.0
  MGH-SFI 03: Ability to Achieve Orgasm, Change from Baseline to Week 5 Mean (SE): −1.0 (0.24)
  MGH-SFI 03: Ability to Achieve Orgasm, Change from Baseline to Week 5 Median: 0.0
  MGH-SFI 03: Ability to Achieve Orgasm, Effect Size (Cohen's d): 0.609
  MGH-SFI 03: Ability to Achieve Orgasm, Week 5 Median: 4.0
  MGH-SFI 04: (Men) Ability to Get and Maintain an Erection, Change from Baseline to Week 5 Mean (SE): −0.3 (0.78)
  MGH-SFI 04: (Men) Ability to Get and Maintain an Erection, Change from Baseline to Week 5 Median: 0.0
  MGH-SFI 04: (Men) Ability to Get and Maintain an Erection, Effect Size (Cohen's d): 0.105
  MGH-SFI 04: (Men) Ability to Get and Maintain an Erection, Week 5 Median: 3.0
  MGH-SFI 05: Overall Sexual Satisfaction, Change from Baseline to Week 5 Mean (SE): −0.8 (0.25)
  MGH-SFI 05: Overall Sexual Satisfaction, Change from Baseline to Week 5 Median: 0.0
  MGH-SFI 05: Overall Sexual Satisfaction, Effect Size (Cohen's d): 0.524
  MGH-SFI 05: Overall Sexual Satisfaction, Week 5 Median: 4.0
  MGH-SFI 06: Overall Improvement Since Last Medication Change, Effect Size (Cohen's d): 0.539
  MGH-SFI 06: Overall Improvement Since Last Medication Change, Week 5 Median: 4.0
[1]
  MGH-SFI 01: Interest in Sex, Week 5 Mean (SE): 3.8 (0.27)
  MGH-SFI 02: Ability to Get Sexually Aroused or Excited, Week 5 Mean (SE): 3.7 (0.26)
  MGH-SFI 03: Ability to Achieve Orgasm, Week 5 Mean (SE): 3.8 (0.26)
  MGH-SFI 04: (Men) Ability to Get and Maintain an Erection, Week 5 Mean (SE): 3.9 (0.70)
  MGH-SFI 05: Overall Sexual Satisfaction, Week 5 Mean (SE): 3.9 (0.27)
  MGH-SFI 06: Overall Improvement Since Last Medication Change, Week 5 Mean (SE): 3.2 (0.17)
[2]
  MGH-SFI 01: Interest in Sex, Change from Baseline to Week 5 Mean (SE): −0.7 (0.45)
  MGH-SFI 01: Interest in Sex, Change from Baseline to Week 5 Median: 0.0
  MGH-SFI 01: Interest in Sex, Effect Size (Cohen's d): 0.347
  MGH-SFI 01: Interest in Sex, Week 5 Median: 3.0
[3]
  MGH-SFI 02: Ability to Get Sexually Aroused or Excited, Change from Baseline to Week 5 Mean (SE): −0.5 (0.27)
  MGH-SFI 02: Ability to Get Sexually Aroused or Excited, Change from Baseline to Week 5 Median: 0.0
  MGH-SFI 02: Ability to Get Sexually Aroused or Excited, Effect Size (Cohen's d): 0.447
  MGH-SFI 02: Ability to Get Sexually Aroused or Excited, Week 5 Median: 3.0
  MGH-SFI 03: Ability to Achieve Orgasm, Change from Baseline to Week 5 Mean (SE): −0.8 (0.36)
  MGH-SFI 03: Ability to Achieve Orgasm, Change from Baseline to Week 5 Median: 0.0
  MGH-SFI 03: Ability to Achieve Orgasm, Effect Size (Cohen's d): 0.352
  MGH-SFI 03: Ability to Achieve Orgasm, Week 5 Median: 4.0
[4]
  MGH-SFI 02: Ability to Get Sexually Aroused or Excited, Week 5 Mean (SE): 3.4 (0.42)
  MGH-SFI 03: Ability to Achieve Orgasm, Week 5 Mean (SE): 3.8 (0.42)
Stage 1, Subgroup of <=50 Years, 34 mg QD + SSRI/SNRI
  MGH-SFI 01: Interest in Sex, Week 5 Mean (SE): 3.5 (0.45)
Stage 1, female subgroup
  MGH-SFI Ability to Achieve Orgasm, treatment effect size: 0.749
  MGH-SFI Ability to Get Sexually Aroused or Excited, treatment effect size: 0.616
  MGH-SFI Interest in Sex, treatment effect size: 0.561
  MGH-SFI Overall Improvement Since Last Medication Change, treatment effect size: 0.634
  MGH-SFI Overall Sexual Satisfaction, treatment effect size: 0.627
Stage 1, patients with or without remission
  MGH-SFI effects vs placebo when assessed by MDD remission status: robust and significant effects
Stage 2
  MGH-SFI treatment effect size for pimavanserin compared to placebo: 0.412
Stage 2, Overall Study Group
  MGH-SFI 01: Interest in Sex, Change from Baseline to Week 5 Mean (SE): −0.4 (0.16)
  MGH-SFI 01: Interest in Sex, Change from Baseline to Week 5 Median: 0.0
  MGH-SFI 01: Interest in Sex, Effect Size (Cohen's d): 0.227
  MGH-SFI 01: Interest in Sex, Week 5 Median: 4.0
  MGH-SFI 02: Ability to Get Sexually Aroused or Excited, Change from Baseline to Week 5 Mean (SE): −0.4 (0.16)
  MGH-SFI 02: Ability to Get Sexually Aroused or Excited, Change from Baseline to Week 5 Median: 0.0
  MGH-SFI 02: Ability to Get Sexually Aroused or Excited, Effect Size (Cohen's d): −0.025
  MGH-SFI 02: Ability to Get Sexually Aroused or Excited, Week 5 Median: 4.5
  MGH-SFI 03: Ability to Achieve Orgasm, Change from Baseline to Week 5 Mean (SE): −0.4 (0.18)
  MGH-SFI 03: Ability to Achieve Orgasm, Change from Baseline to Week 5 Median: 0.0
  MGH-SFI 03: Ability to Achieve Orgasm, Effect Size (Cohen's d): 0.300
  MGH-SFI 03: Ability to Achieve Orgasm, Week 5 Median: 5.0
  MGH-SFI 04: (Men) Ability to Get and Maintain an Erection, Change from Baseline to Week 5 Mean (SE): −1.0 (0.41)
  MGH-SFI 04: (Men) Ability to Get and Maintain an Erection, Change from Baseline to Week 5 Median: −1.0
  MGH-SFI 04: (Men) Ability to Get and Maintain an Erection, Effect Size (Cohen's d): 0.701
  MGH-SFI 04: (Men) Ability to Get and Maintain an Erection, Week 5 Median: 4.0
  MGH-SFI 05: Overall Sexual Satisfaction, Change from Baseline to Week 5 Mean (SE): −0.7 (0.25)
  MGH-SFI 05: Overall Sexual Satisfaction, Change from Baseline to Week 5 Median: −0.5
